Results taken from US12239643B2, “Therapeutic agent for inflammatory diseases, autoimmune diseases, fibrotic diseases, and cancer diseases” (MEIJI SEIKA PHARMA CO., LTD., priority 2018, dated 2025).

Legend:
Assay type in all cases: cell-based
TNFα = test: Cytokine suppression using human T cells: TNFα; details: T-cell; human CD3-positive T cells, CD3 antibody, about 18 hours; read-out: TNFα Inhibitory Activity, Human T-Cell (Test Example 5)
Protocol: (§1) First, CD3-positive T cells were separated from whole blood by a magnetic bead method using an EasySep cell separation kit. Separated T cells suspended in RPMI-1640 medium were seeded on a 96-well plate previously coated with CD3 antibody (final concentration 3 μg/mL). Further, CD28 antibody (final concentration 5 ng/mL) was added as an IL-5 production stimulus and an IL-13 production stimulus. A test compound dissolved in dimethyl sulfoxide was added to each well, followed by culture at 37° C. under 5% CO2. The culture was carried out for about 18 hours for the evaluation of the amount of TNFα, and for about 48 hours for the evaluation of the amounts of IL-17A, IL-5, and IL-13. […]
(§2) The measurement results obtained by measuring the TNFα inhibitory activity (50% inhibitory concentration) of the test compounds by the above method were evaluated in accordance with the following evaluated basis; A: less than 10 nM, B: 10 nM or more and less than 100 nM, and C: 100 nM or more. In addition, the measurement results obtained by measuring the IL-17A inhibitory activity, IL-5 inhibitory activity, and IL-13 inhibitory activity (50% inhibitory concentration) of the test compounds were evaluated in accordance with the following evaluated basis; A: less than 500 nM, B: 500 nM or more and less than 5000 nM, and C: 5000 nM or more.

IL-13 = test: Cytokine suppression using human T cells: IL-13; details: T-cell; human CD3-positive T cells, CD3 and CD28 antibody, about 48 hours; read-out: IL-13 Inhibitory Activity, Human T-Cell (Test Example 5)
Protocol: as §1, §2

IL-17A = test: Cytokine suppression using human peripheral blood mononuclear cells: IL-17A; details: human PBMC, concanavalin A 20 μg/mL; read-out: IL-17A Inhibitory Activity, Human PBMC (Test Example 4)
Protocol: First, peripheral blood mononuclear cells (PBMC) were separated from whole blood by specific gravity centrifugation. Then, the isolated peripheral blood mononuclear cells were added to RPMI-1640 medium (containing 10% fetal bovine serum, penicillin, streptomycin, L-glutamine, and 2-mercaptoethanol), and cultured in a 96-well plate at 37° C. under 5% CO2 for 0 to 1 hour. The test compound dissolved in dimethyl sulfoxide was added to each well, followed by further culture at 37° C. under 5% CO2 for 1 hour. A medium containing only dimethyl sulfoxide instead of the test compound was added to the control well. […]
as §2, with “TNFα inhibitory activity and IL-5” for “TNFα”, “IL-23 inhibitory activity, IL-4” for “IL-5”

IL-5 = test: Cytokine suppression using human T cells: IL-5; details: T-cell; human CD3-positive T cells, CD3 and CD28 antibody, about 48 hours; read-out: IL-5 Inhibitory Activity, Human T-Cell (Test Example 5)
Protocol: as §1, §2

[1] = test system: CEM-C1 (blood cancer (leukemia)); test: Antitumor activity: growth inhibition of CEM-C1; details: 120 h; CEM-C1, culturing for 5 days; read-out: 50% growth inhibitory concentration
Protocol: (§3) As antitumor activity, 50% growth inhibitory concentration of various cancer cells (CEM-C1 (blood cancer (leukemia)), SU-DHL-4 (blood cancer (lymphoma)), A549 (lung cancer), HCT-116 (colorectal cancer), and Daoy (brain tumor)) was calculated as follows. First, each of the above cancer cells was seeded on a 384-well plate and cultured overnight at 37° C. under 5% CO2. After that, the test compound was added at various concentrations on the next day, and each number of cells was measured after culturing for 5 days. The 50% growth inhibitory concentration was defined as the test compound concentration at which the number of cells measured is an intermediate value between the number of cells after culture for 5 days under the same conditions without the addition of the test compound and the number of cells at the time of seeding (before the start of culture). The measurement results obtained by measuring the 50% growth inhibitory concentration of the test compound by the above method were evaluated in accordance with the following evaluated basis; A: less than 10 μM, B: 10 μM or more and less than 50 μM, and C: 50 μM or more. As a result of using apremilast as the test compound, the evaluation was C in all cancer cells. On the other hand, as a result of using the compound obtained in Example 248 as the test compound, the evaluation was A in all cancer cells.

[2] = test system: SU-DHL-4 (blood cancer (lymphoma)); test: Antitumor activity: growth inhibition of SU-DHL-4; details: Homo sapiens, 120 h; SU-DHL-4, culturing for 5 days; read-out: 50% growth inhibitory concentration
Protocol: as §3

| SMILES | IC50 (TNFα) [nM] | IC50 (IL-13) [nM] | IC50 (IL-17A) [nM] | IC50 (IL-5) [nM] | IC50 [1] [nM] | IC50 [2] [nM] |
| --- | --- | --- | --- | --- | --- | --- |
| CC(C)(O)C(F)(F)Oc1ccc(-c2nccs2)c2oc(N3CC4CC(C3)N4)nc12 [Example 248, 1-((2-(3,6-Diazabicyclo[3.1.1]heptan-3-yl)-7-(thiazol-2-yl)benzo[d]oxazol-4-yl)oxy)-1,1-difluoro-2-methylpropan-2-ol] | < 10 | < 500 | < 500 | < 500 | < 10000 | < 10000 |
| CCOc1cc([C@@H](CS(C)(=O)=O)N2C(=O)c3cccc(NC(C)=O)c3C2=O)ccc1OC [apremilast, reference compound] | > 100 | 500 to 5000 | 500 to 5000 | ≥ 5000 | ≥ 50000 | ≥ 50000 |
